Source: patent publication US6592894B1, “Hydrogel-isolated cochleate formulations, process of preparation and their use for the delivery of biologically relevant molecules” (BioDelivery Sciences International, Inc., priority 1999, dated 2003)

Tested on: Candida albicans
Experiment: Fungicidal effect, ratio of colony forming units to total cell number
Type: cell-based
Details: 0.625 μg AmB/ml, after 30 hours of incubation
Procedure: Aliquots of yeast cells (50 μl) were removed from the 96 well plates and serially diluted (up to 1:10000 for plating onto agar plates) and counted using a hemocytometer. Fifty μl of the diluted yeast cells were plated onto YPD agar plates and incubated for 24 hours at 37° C. Yeast colonies were counted using a BioRad Fluor-S Multi-Imager equipped with Quanitity One™ software.
Yeast cells treated with AmBisome, AmB/DMSO and AmB/cochleates (0.625 μg AmB/ml) were examined for the ratio of colony forming units to total cell number after 30 hours of incubation. […] The AmBisome was not as effective, resulting in 52% yeast viability (FIG. 7).

## C[C@@H]1[C@H](O)[C@@H](C)/C=C/C=C/C=C/C=C/C=C/C=C/C=C/[C@H](O[C@@H]2O[C@H](C)[C@@H](O)[C@H](N)[C@@H]2O)C[C@@H]2O[C@](O)(C[C@@H](O)C[C@@H](O)[C@H](O)CC[C@@H](O)C[C@@H](O)CC(=O)O[C@H]1C)C[C@H](O)[C@H]2C(=O)O [AmB/DMSO, Amphotericin B]
  yeast viability (ratio of colony forming units to total cell number): 12%
